Laboratory results taken from ChEMBL document CHEMBL5727136, “Inhibitors of RPN11” (2018).

What was measured:
[1] = (§1) Biochemical Assay: In brief, this Rpn11 bioassay employs a fluorescent polarization readout based on the ability of the 26S proteasome to cleave the protein substrate including four tandem ubiquitin proteins fused to a peptide having a unique cysteine labeled with a fluorophore. Cleavage of this substrate by Rpn11 at the junction between the fourth ubiquitin and the peptide, releases the low molecular weight fluorescent peptide. Accordingly, inhibition of fluorescence correlates with inhibition of Rpn11. Inhibition is reported as the half maximal inhibitory concentration (IC50) for the candidate compound.The catalytic JAB1/MPN/Mov34 metalloenzyme (JAMM) motif of Rpn11 is found in 7 different human proteins including the Csn5 subunit of the COP9 signalosome, AMSH, AMSH-LP, the BRCC36 subunit of BRISC, MPND, and MYSM1. All of these enzymes cleave the isopeptide linkage that joins ubiquitin (or the ubiquitin-like protein Nedd8 in the case of Csn5) to a second molecule of ubiquitin or to a substrate. The conserved JAMM domain has the consensus sequence EXnHS/THX7SXXD, in which the histidine (His) and aspartic acid (Asp) residues bind the Zn2+ ion and the fourth coordination site is occupied by a water molecule that is engaged in hydrogen bonding with a conserved glutamic acid (Glu). The Zn2+ acts as a Lewis acid and increases the nucleophilic character of the bound water enough to allow hydrolytic cleavage of the isopeptide bond.
[2] = as §1; remark: listed apart in the source
[3] = as §1; remark: listed apart in the source

Structure (SMILES)	IC50 [1]	IC50 [2]	IC50 [3]
O=C(NCc1cccs1)c1cnc2c(S)cccc2c1	16 µM	1.3 µM	0.8 µM
O=C(NCCc1cccs1)c1cnc2c(S)cccc2c1	4 µM	1.3 µM	0.3 µM
O=C(NCCc1nccs1)c1cnc2c(S)cccc2c1	30 µM	–	–
O=C(NCc1ccc(N2CCOCC2)cc1)c1cnc2c(S)cccc2c1	–	–	0.8 µM
O=C(NCC1CCCO1)c1cnc2c(S)cccc2c1 (stereo unspecified)	41.3 µM	6.8 µM	4.6 µM
O=C(NCc1ccc(F)cc1)c1cnc2c(S)cccc2c1	18 µM	0.85 µM	–
O=C(NCc1ccc2c(c1)OCO2)c1cnc2c(S)cccc2c1	7 µM	< 0.2 µM	0.9 µM
O=C(NCCc1ccco1)c1cnc2c(S)cccc2c1	6.9 µM	1.7 µM	–
CNC(=O)c1cnc2c(S)cccc2c1	68 µM	4.8 µM	–
O=C(NCc1ccco1)c1cnc2c(S)cccc2c1	–	0.9 µM	0.9 µM
O=C(NCc1ccccc1)c1cnc2c(S)cccc2c1	11 µM	15 µM	1.1 µM
O=C(NCCc1ccco1)c1ccnc2c(S)cccc12	–	2.9 µM	–
COc1ccc(CNC(=O)c2cnc3c(S)cccc3c2)cc1	0.5 µM	0.6 µM	–
NC(=O)c1cnc2c(S)cccc2c1	–	1.2 µM	1 µM
O=C(NCc1nccs1)c1cnc2c(S)cccc2c1	–	7.8 µM	–
O=C(Nc1nccs1)c1cnc2c(S)cccc2c1	–	3.3 µM	–
O=C(NCc1ccccn1)c1cnc2c(S)cccc2c1	–	16.7 µM	–
O=C(NCc1cccnc1)c1cnc2c(S)cccc2c1	–	3.52 µM	–
O=C(NCCN1CCOCC1)c1cnc2c(S)cccc2c1	–	25.4 µM	6.4 µM
